{"source": "patent US10765670B2", "about": "“Use of anti-connexin agents for enhancing the therapeutic effect of acetylcholinesterase inhibitors” (COMMISSARIAT A L'ENERGIE ATOMIQUE ET AUX ENERGIES …, priority 2011, dated 2020)", "key": {"[1]": {"tested_on": "C57bl/6 male mice, 17-18-month old", "assay": "Behavioral test of working memory, T-maze spontaneous alternation (SA-task) in elderly mice", "type": "in vivo", "details": "for SA-task relative to vehicles (mean percentage of alternation relative to vehicles over the seven trials): 30 min before T-maze, 17-18-month old mice; for promnesiant effect (increase of total alternation, FIG. 2) / total alternation in T-maze (FIG. 2): elderly mice", "description": "The alternating sequential test is widely used to assess spatial working memory in mice (Beracochea D. J. and Jaffard R., Behav. Neurosci. 101 (1987) 187-97). Spontaneous alternation is the innate tendency of rodents to alternate their choices to enter into the compartments of arrival of a T-maze device, over successive trials. To alternate during a given trial N, the animal must remember the choice made selectively in test N−1, so the decline in alternating will reflect the phenomenon of oblivion. The response in alternating is performance measure. Sequential alternating assess more specifically the sensitivity to interference, a major factor in oblivion.\nThe experiment took place in a T-maze (50 cm×10 cm×25 cm). All the subjects (C57bl/6 male mice, 17-18-month old, n=9) were given 7 successive trials separated by a 90-s intertrial interval. To begin a trial, the mouse was placed in the start box for 90 s before the door to the stem was opened. When the subject entered one of the goal arms, the door to that arm was closed. The chosen arm and the time that elapsed between opening the door and the arrival to the end of the chosen arm (task achievement time) were registered. Following a 30-s confinement period in the chosen arm, the animal was removed and placed in the start box for a new trial. Between each test, the unit was cleaned with water and alcohol to avoid olfactory detection. An alternation response was considered each time the subject entered the arm opposite to the one visited on the immediately previous trial. Alternation rate was calculated taking into account the 6 successive trials, and expressed in percentage relative to the maximal alternation rate of 100% (obtained when the subject never returned into the same arm for two consecutive trials).\nC57BL/6 mice of 17 to 18 months (“elderly” mice) were intraperitoneally injected with a solution of NaCl (vehicle), donepezil (DZP), meclofenamic acid (MFA) or a combination of these two latter compounds, 30 minutes before T-maze experiment.\nThirty minutes after treatment (NaCl, donepezil, MFA), “elderly” mice are placed in the T-maze device. The percentage of alternation was measured for 7 consecutive trials, 50% corresponding to a random alternation."}, "[2]": {"tested_on": "male C57bl/6 mice", "assay": "Electro-encephalographic recording of hippocampal theta activity in mice", "type": "in vivo", "details": "for EEG Relative power to vehicles (relative power of hippocampal theta rhythm): n=7", "experimental": "Electrophysiological effects of donepezil were evaluated by analysis of hippocampal electroencephalographic activity (EEG) as described previously in WO2010/029131. Briefly, the assay is as follows:\nTwo groups of male C57bl/6 mice (seven mice from 4 to 5 month old and seven mice from 17 to 18 month old) were pre-implanted with bilateral hippocampal bipolar electrodes under isoflurane anaesthesia. A two-week period of recovery was realized before recordings.\nDifferent intraperitoneal treatments were performed by circular combination of 7 mice per treatment (donepezil 0.1 and 0.3 mg/kg, meclofenamic 1 mg/kg, donepezil 0.1 mg/kg+MFA 1 mg/kg).\nEEG measures were performed on different batches of awoke mice (previously implanted and tamed) by recordings two hours after injection. The spectral analysis is carried out by Fourier transform (FFT) and allows the calculation of the relative powers for each Hertz and each second. FFT data are then averaged minute by minute and reported to control solvent recording realized on the day before in strictly identical experimental conditions. The spectral powers of two hippocampal electrodes are then averaged between 3 and 12 Hertz and represented hourly.\nAt day 1, saline was administered intraperitoneally to “adult” or “elderly” mice (n=7), and θ-hippocampal activity was measured for two consecutive hours. On day 2, donepezil alone or in combination with MFA is injected, and θ-hippocampal activity is related to that measured on day 1."}, "[3]": {"tested_on": "rodents", "details": "MFA 1 mg/kg, previously described; cited from earlier work"}, "[4]": {"details": "Wagner C. et al 2007; cited from earlier work"}}, "note": "Marks after values point to notes of the source that are not given here.", "data": [{"smiles": "COc1cc2c(cc1OC)C(=O)C(CC1CCN(Cc3ccccc3)CC1)C2", "note": "(stereo not drawn) [donepezil, 2,3-dihydro-5,6-dimethoxy-2-[[1-(phenylmethyl)-4-piperidinyl]methyl]-1H-i-nden-1-one]", "values": [{"measurement": "SA-task relative to vehicles (mean percentage of alternation relative to vehicles over the seven trials)", "setting": "[1]; donepezil 0.1 mg/kg i.p.", "value": 35, "unit": "%"}, {"measurement": "promnesiant effect (increase of total alternation, FIG. 2)", "setting": "[1]; donepezil 0.1 mg/kg i.p.", "value": "no significant promnesiant effect"}, {"measurement": "alternation by blocks of two trials (FIG. 3), memory interference", "setting": "[1]; donepezil 0.1 mg/kg i.p., third block (trials 6 and 7)", "value": "partially counteract the interference phenomenon"}, {"measurement": "SA-task relative to vehicles (mean percentage of alternation relative to vehicles over the seven trials)", "setting": "[1]; donepezil 0.3 mg/kg i.p., p<0.01", "value": 48, "unit": "%**"}, {"measurement": "promnesiant effect (increase of total alternation, FIG. 2)", "setting": "[1]; donepezil 0.3 mg/kg i.p.", "value": "significant promnesiant effect"}, {"measurement": "promnesiant effect (increase of total alternation, FIG. 2)", "setting": "[1]; donepezil 1 mg/kg i.p.", "value": "significant promnesiant effect"}, {"measurement": "total alternation in T-maze (FIG. 2)", "setting": "[1]; donepezil alone 0.3 mg/kg i.p.", "value": "around 75%"}, {"measurement": "total alternation in T-maze (FIG. 2)", "setting": "[1]; donepezil alone 1 mg/kg i.p.", "value": "around 75%"}, {"measurement": "response of θ-hippocampal activity (FIG. 1)", "setting": "[2]; 4-5-month old mice, donepezil 0.1 mg/kg i.p.", "value": "do not respond significantly"}, {"measurement": "response of θ-hippocampal activity (FIG. 1)", "setting": "[2]; 4-5-month old mice, donepezil 0.3 mg/kg i.p.", "value": "do not respond significantly"}, {"measurement": "response of θ-hippocampal activity (FIG. 1)", "setting": "[2]; 17-18-month old mice, donepezil 0.3 mg/kg i.p., second hour of recording", "value": "an effect"}, {"measurement": "EEG Relative power to vehicles (relative power of hippocampal theta rhythm)", "setting": "[2]; donepezil 0.1 mg/kg intraperitoneal", "value": 1}, {"measurement": "EEG Relative power to vehicles (relative power of hippocampal theta rhythm)", "setting": "[2]; donepezil 0.3 mg/kg intraperitoneal", "value": 1}]}, {"smiles": "Cc1ccc(Cl)c(Nc2ccccc2C(=O)O)c1Cl", "note": "[MFA, Benzoic 2-[(2,6-di-chloro-3-phenyl)amino] acid]", "values": [{"measurement": "promnesiant effect (increase of total alternation, FIG. 2)", "setting": "[1]; MFA alone 1 mg/kg i.p.", "value": "no promnesiant effect significant"}, {"measurement": "alternation by blocks of two trials (FIG. 3)", "setting": "[1]; MFA alone 1 mg/kg i.p., three blocks of trials", "value": "no significant effect"}, {"measurement": "effect on the electroencephalographic signal", "setting": "[3]", "value": "not affecting the electroencephalographic signal"}, {"measurement": "dose at which the anti-inflammatory effect is observed in vivo", "setting": "[4]", "value": "approximately 5 mg/kg/day"}, {"measurement": "effect on EEG (θ-hippocampal activity)", "setting": "[2]; MFA alone 1 mg/kg i.p.", "value": "no effect by its own"}]}]}
